Measured values: US8198438B2, “Pyrrolotriazine kinase inhibitors” (Bristol-Myers Squibb Company, priority 2007, dated 2012)

Tests used:
Type in all cases: biochemical
CDK2E = CDK2E (Homo sapiens, UniProt P24941); experiment: CDK 2/Cyclin E Kinase Assay; details: ATP 30 μM; CDK2E 0.2 nM; Caliper LabChip 3000
Method: A. CDK 2/Cyclin E Kinase Assay
(§1) The assays were performed in U-bottom 384-well plates. The final assay volume was 30 μl prepared from 15 μl additions of enzyme and substrates (fluoresceinated CDK2E substrate peptide and ATP) and test compounds in assay buffer (100 mM HEPES pH 7.4, 10 mM MgCl2, 0.015% Brij35 and 4 mM DTT). The reaction was initiated by the combination of bacterially expressed, CDK2E with substrates and test compounds. The reaction was incubated at room temperature for 60 min. and terminated by adding 30 μl of 35 mM EDTA to each sample. The reaction mixture was analyzed on the Caliper LabChip 3000 by electrophoretic separation of the fluorescent substrate and phosphorylated product Inhibition data were calculated by comparison to no enzyme control reactions for 100% inhibition and vehicle-only reactions for 0% inhibition. The final concentration of reagents in the assays is ATP, 30 μM; FL-peptide, 1.5 μM; CDK2E, 0.2 nM; and DMSO, 1.6%. Dose response curves were generated to determine the concentration required inhibiting 50% of kinase activity (IC50). Compounds were dissolved at 10 mM in dimethylsulfoxide (DMSO) and evaluated at eleven concentrations, each in duplicate. IC50 values were derived by non-linear regression analysis.

FLT3 = target: T1, FLT3 (Homo sapiens, UniProt P36888); experiment: FLT3 kinase assay; details: ATP 200 μM; FLT3 4.5 nM; Caliper LabChip 3000
T1 sequence (P36888 27-993): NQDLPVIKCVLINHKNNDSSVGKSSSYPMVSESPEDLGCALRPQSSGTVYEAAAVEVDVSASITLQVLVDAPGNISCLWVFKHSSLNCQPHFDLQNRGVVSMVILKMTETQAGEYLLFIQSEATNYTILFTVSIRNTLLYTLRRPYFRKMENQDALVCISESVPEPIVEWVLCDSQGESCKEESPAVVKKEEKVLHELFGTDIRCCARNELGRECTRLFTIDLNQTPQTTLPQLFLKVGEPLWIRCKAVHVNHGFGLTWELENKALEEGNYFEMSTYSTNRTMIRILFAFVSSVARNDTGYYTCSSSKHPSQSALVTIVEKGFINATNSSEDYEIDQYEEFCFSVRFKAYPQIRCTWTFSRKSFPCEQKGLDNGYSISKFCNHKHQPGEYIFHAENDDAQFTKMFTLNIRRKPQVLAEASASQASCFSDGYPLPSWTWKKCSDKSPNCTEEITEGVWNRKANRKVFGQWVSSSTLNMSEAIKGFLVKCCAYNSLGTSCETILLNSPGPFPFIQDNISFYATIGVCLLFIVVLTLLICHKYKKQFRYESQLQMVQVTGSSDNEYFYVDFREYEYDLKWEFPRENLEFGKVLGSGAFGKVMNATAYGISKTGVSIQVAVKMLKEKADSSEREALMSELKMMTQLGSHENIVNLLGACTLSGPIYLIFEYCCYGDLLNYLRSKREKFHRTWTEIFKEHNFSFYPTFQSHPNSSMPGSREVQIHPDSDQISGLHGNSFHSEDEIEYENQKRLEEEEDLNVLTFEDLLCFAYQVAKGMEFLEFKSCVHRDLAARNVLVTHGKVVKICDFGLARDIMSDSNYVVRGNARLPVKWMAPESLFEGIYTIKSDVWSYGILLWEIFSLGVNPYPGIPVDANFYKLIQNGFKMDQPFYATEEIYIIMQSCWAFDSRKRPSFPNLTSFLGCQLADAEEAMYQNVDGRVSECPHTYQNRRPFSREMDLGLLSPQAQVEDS
Method: as §1, with “FLT3” for “CDK2E”, “FLT3” for “bacterially expressed, CDK2E”, “product.” for “product”, “200 μM,” for “30 μM;”, “FLT3, 4.5 nM” for “CDK2E, 0.2 nM;”

GSK3-β = target: T2, GSK3-β (Homo sapiens, UniProt P49841); experiment: GSK3-β kinase assay; details: ATP 30 μM; His-GSK3B 2.4 nM; Caliper LabChip 3000; read-out: GSK-3β IC50
T2 construct: His
Method: (§2) The assays were performed in U-bottom 384-well plates. The final assay volume was 30 μl prepared from 15 μl additions of enzyme and substrates (fluoresceinated peptide FL-GSK substrate and ATP) and test compounds in assay buffer (100 mM HEPES pH 7.2, 10 mM MgCl2, 0.015% Brij35, 25 mM β-glycerolphosphate and 4 mM DTT). The reaction was initiated by the combination of GSK3-β with substrates and test compounds. The reaction was incubated at room temperature for 60 min. and terminated by adding 30 μl of 35 mM EDTA to each sample. The reaction mixture was analyzed on the Caliper LabChip 3000 (Caliper, Hopkinton, Mass.) by electrophoretic separation of the fluorescent substrate and phosphorylated product Inhibition data were calculated by comparison to no enzyme control reactions for 100% inhibition and vehicle-only reactions for 0% inhibition. The final concentration of reagents in the assays is ATP, 30 μM; FL-GSK substrate, 1.5 μM; His-GSK3B, 2.4 nM; and DMSO, 1.6%.

GST-Met = GST-Met (Homo sapiens, UniProt P08581); experiment: Met Kinase Assay; details: 1 μM ATP; 33P γ-ATP, poly(Glu/Tyr); 1 h at 30° C.
Method: Kinase reactions consisted of 0.75 ng of baculovirus expressed GST-Met, 3 ug poly(Glu/Tyr) (Sigma), 0.12 μCi 33P γ-ATP, 1 μM ATP in 30 μl kinase buffer (20 mm TRIS-C1, 5 mM MnCl2, 0.1 mg/ml BSA, 0.5 mM DTT). Reactions were incubated for 1 h at 30° C. and stopped by the addition of cold trichloroacetic acid (TCA) to a final concentration 8%. TCA precipitates were collected onto GF/C unifilter plates using a Filtermate universal harvester and the filters were quantitated using a TopCount 96-well liquid scintillation counter. Dose response curves were generated to determine the concentration required to inhibit 50% of kinase activity (IC50). Compounds were dissolved at 10 mM in dimethylsulfoxide (DMSO) and evaluated at seven concentrations, each in triplicate.

JAK2 = JAK2 (Homo sapiens, UniProt O60674); experiment: JAK2 kinase assay; details: ATP 30 μM; activated JAK2; Caliper LabChip 3000
Method: as §2, with “FL-JAK2” for “FL-GSK”, “activated JAK2” for “GSK3-β”, “product.” for “product”, “FL-JAK2 peptide,” for “FL-GSK substrate,”, “[…], 2.6” for “His-GSK3B, 2.4”

IGF1-receptor = IGF1-receptor (Homo sapiens, UniProt P08069); experiment: IGF1-Receptor Tyrosine Kinase Assay; details: ATP 25 μM; IGF1-Receptor 14 nM; Caliper LabChip 3000; read-out: IGF1R IC50
Method: D. IGF1-Receptor Tyrosine Kinase Assay
The assays were performed in U-bottom 384-well plates. The final assay volume was 30 μl prepared from 15 μl additions of enzyme and substrates (fluoresceinated IGF1R substrate peptide and ATP) and test compounds in assay buffer (100 mM HEPES pH 7.4, 10 mM MnCl2, 0.015% Brij35 and 4 mM DTT). The reaction was initiated by the combination of IGF1-receptor with substrates and test compounds. The reaction was incubated at room temperature for 60 min. and terminated by adding 30 μl of 35 mM EDTA to each sample. The reaction mixture was analyzed on the Caliper LabChip 3000 by electrophoretic separation of the fluorescent substrate and phosphorylated product. Inhibition data were calculated by comparison to no enzyme control reactions for 100% inhibition and vehicle-only reactions for 0% inhibition. The final concentration of reagents in the assays is ATP, 25 μM; FL-peptide, 1.5 μM; IGF1-Receptor, 14 nM; and DMSO, 1.6%. Dose response curves were generated to determine the concentration required inhibiting 50% of kinase activity (IC50). Compounds were dissolved at 10 mM in dimethylsulfoxide (DMSO) and evaluated at eleven concentrations, each in duplicate. IC50 values were derived by non-linear regression analysis

T2 sequence (P49841 whole entry): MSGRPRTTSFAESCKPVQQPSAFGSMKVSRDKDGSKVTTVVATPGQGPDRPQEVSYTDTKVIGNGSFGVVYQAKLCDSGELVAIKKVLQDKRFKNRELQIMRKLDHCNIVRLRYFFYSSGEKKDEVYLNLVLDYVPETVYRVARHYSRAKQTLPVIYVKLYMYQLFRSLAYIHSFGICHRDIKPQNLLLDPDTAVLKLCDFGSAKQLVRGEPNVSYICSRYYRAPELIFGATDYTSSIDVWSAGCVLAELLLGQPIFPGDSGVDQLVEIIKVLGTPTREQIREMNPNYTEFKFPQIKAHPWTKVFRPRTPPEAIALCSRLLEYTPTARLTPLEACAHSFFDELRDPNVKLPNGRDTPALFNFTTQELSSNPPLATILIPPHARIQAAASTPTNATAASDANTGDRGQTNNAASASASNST
Chain of IGF1-receptor (P08069 31-1367): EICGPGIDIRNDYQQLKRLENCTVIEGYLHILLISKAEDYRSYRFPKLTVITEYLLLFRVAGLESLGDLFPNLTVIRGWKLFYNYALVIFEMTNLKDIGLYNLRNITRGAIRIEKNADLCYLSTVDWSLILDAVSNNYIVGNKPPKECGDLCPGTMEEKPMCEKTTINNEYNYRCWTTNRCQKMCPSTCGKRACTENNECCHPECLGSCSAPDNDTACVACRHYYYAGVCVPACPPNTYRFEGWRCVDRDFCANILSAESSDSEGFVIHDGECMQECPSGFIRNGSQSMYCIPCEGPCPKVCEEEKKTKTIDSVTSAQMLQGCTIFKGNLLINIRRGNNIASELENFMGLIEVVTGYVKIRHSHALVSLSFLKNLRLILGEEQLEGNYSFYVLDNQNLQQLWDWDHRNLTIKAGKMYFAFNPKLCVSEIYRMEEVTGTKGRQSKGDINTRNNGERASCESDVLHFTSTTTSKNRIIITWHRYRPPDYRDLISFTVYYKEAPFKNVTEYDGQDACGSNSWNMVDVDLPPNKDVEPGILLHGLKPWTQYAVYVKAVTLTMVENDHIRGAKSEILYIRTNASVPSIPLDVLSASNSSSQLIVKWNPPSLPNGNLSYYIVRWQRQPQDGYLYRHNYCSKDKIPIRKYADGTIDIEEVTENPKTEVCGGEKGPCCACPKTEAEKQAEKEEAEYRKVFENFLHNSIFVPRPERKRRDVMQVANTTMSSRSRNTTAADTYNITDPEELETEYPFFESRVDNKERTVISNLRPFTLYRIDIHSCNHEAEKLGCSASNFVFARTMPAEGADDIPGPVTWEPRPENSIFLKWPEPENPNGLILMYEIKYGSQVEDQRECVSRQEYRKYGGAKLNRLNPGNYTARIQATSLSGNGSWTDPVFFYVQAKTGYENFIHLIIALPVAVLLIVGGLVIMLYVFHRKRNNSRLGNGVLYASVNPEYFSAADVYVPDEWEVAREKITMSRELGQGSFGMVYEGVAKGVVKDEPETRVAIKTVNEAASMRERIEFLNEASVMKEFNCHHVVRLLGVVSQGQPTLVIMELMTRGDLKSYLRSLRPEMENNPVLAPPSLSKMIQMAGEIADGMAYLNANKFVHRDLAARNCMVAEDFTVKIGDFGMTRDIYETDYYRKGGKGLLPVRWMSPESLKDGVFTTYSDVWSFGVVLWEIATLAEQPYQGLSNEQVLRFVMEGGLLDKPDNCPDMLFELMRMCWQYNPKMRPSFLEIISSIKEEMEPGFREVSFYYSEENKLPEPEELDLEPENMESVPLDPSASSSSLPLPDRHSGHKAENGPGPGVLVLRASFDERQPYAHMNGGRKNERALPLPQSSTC
Chain of JAK2 (O60674 whole entry): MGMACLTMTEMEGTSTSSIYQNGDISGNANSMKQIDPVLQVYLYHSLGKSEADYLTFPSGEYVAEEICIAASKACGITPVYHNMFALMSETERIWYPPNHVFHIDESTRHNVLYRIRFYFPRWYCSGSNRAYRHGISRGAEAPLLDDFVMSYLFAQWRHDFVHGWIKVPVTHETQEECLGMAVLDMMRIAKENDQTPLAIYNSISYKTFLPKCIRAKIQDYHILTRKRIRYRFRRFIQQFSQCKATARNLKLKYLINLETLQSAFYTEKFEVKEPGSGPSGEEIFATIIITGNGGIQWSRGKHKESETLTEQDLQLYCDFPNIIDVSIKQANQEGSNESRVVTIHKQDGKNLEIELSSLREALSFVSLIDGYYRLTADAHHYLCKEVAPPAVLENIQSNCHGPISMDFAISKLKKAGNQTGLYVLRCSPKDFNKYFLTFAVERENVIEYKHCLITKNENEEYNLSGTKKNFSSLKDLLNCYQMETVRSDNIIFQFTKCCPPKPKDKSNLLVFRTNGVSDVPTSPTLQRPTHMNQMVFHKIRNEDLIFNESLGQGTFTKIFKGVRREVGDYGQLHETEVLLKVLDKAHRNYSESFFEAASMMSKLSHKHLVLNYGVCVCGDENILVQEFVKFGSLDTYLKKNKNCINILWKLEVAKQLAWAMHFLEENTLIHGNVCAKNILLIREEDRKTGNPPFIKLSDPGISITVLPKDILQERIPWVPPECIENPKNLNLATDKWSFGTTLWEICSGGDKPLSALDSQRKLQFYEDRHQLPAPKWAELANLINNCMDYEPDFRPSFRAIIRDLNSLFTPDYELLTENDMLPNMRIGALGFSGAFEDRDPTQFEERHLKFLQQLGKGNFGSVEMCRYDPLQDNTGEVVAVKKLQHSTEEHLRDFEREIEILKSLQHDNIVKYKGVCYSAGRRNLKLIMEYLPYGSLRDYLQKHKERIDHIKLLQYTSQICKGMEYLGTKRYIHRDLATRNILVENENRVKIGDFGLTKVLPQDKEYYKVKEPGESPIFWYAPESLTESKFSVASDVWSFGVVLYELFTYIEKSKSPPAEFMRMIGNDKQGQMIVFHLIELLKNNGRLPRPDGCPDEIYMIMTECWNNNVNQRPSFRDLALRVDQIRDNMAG
Chain of GST-Met (P08581 25-1390): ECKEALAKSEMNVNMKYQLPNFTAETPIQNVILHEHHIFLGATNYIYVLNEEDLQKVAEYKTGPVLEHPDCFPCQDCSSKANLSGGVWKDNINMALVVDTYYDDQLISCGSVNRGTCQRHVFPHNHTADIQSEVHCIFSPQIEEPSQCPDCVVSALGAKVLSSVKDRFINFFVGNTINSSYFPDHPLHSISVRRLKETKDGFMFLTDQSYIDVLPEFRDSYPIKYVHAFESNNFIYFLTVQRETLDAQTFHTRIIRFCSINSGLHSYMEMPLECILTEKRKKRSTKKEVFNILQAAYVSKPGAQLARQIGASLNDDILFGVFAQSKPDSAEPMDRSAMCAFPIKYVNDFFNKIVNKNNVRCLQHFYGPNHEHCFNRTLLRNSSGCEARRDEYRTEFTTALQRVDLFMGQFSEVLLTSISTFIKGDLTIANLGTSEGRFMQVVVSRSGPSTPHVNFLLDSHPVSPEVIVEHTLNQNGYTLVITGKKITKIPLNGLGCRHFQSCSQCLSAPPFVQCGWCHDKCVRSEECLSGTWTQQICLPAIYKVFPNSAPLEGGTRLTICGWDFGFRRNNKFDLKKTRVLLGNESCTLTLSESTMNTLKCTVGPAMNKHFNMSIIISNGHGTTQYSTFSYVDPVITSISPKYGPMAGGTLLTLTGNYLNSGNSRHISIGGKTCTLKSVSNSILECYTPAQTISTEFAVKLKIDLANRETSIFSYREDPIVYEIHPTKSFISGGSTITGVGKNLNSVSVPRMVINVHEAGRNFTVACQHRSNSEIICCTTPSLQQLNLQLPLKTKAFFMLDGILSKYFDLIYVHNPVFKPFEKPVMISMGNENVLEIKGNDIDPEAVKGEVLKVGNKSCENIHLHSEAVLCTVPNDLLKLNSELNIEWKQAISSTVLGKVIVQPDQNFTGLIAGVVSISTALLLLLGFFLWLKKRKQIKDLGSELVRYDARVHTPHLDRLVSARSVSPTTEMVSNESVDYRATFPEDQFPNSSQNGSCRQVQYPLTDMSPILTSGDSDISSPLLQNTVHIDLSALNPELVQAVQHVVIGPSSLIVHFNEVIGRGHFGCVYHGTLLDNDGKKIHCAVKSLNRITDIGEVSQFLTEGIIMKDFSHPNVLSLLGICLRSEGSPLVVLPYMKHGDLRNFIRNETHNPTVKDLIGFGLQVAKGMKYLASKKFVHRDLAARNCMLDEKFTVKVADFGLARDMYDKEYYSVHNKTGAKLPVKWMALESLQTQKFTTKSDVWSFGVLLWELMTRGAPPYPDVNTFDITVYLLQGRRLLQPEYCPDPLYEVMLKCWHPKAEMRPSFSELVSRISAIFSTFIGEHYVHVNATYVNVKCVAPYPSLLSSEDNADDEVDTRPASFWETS

IC50 (CDK2E) [nM]	IC50 (FLT3) [nM]	IC50 (GSK3-β) [nM]	IC50 (GST-Met) [nM]	IC50 (JAK2) [nM]	IC50 (IGF1-receptor) [nM]	SMILES
17400	308	4450	–	22000	314	CC(C)(C)OC(=O)N1CCC(C(=O)N2CCC[C@@H]2c2nc(Nc3cc(C4CC4)[nH]n3)c3cccn3n2)CC1 [Example 13, (R)-tert-Butyl 4-(2-(4-(5-cyclopropyl-1H-pyrazol-3-ylamino)pyrrolo[1,2-f][1,2,4]triazin-2-yl)pyrrolidine-1-carbonyl)piperidine-1-carboxylate]
615	97	92	10500	10700	4050	O=C(C1CCNCC1)N1CCC[C@H]1c1nc(Nc2cc(C3CC3)[nH]n2)c2cccn2n1 [Example 6, (S)-(2-(4-(5-Cyclopropyl-1H-pyrazol-3-ylamino)pyrrolo[1,2-f][1,2,4]triazin-2-yl)pyrrolidin-1-yl)(piperidin-4-yl)methanone]
54	4	51	1170	36	68	O=C(c1cc[nH]n1)N1CCC[C@H]1c1nc(Nc2cc(C3CC3)[nH]n2)c2cccn2n1 [Example 7, (S)-(2-(4-(5-Cyclopropyl-1H-pyrazol-3-ylamino)pyrrolo[1,2-f][1,2,4]triazin-2-yl)pyrrolidin-1-yl)(1H-pyrazol-3-yl)methanone]
5	1	20	1780	–	135	CC(=O)N1CCC[C@H]1c1nc(Nc2cc(C3CC3)[nH]n2)c2cccn2n1 [Example 4, (S)-1-(2-(4-(5-Cyclopropyl-1H-pyrazol-3-ylamino)pyrrolo[1,2-f][1,2,4]-triazin-2-yl)pyrrolidin-1-yl)ethanone]

Continued, compound first:

SMILES	IC50 (CDK2E) [nM]	IC50 (FLT3) [nM]	IC50 (GSK3-β) [nM]	IC50 (GST-Met) [nM]	IC50 (JAK2) [nM]	IC50 (IGF1-receptor) [nM]
O=C(c1nccs1)N1CCC[C@@H]1c1nc(Nc2cc(C3CC3)[nH]n2)c2cccn2n1 [Example 15, (R)-(2-(4-(5-Cyclopropyl-1H-pyrazol-3-ylamino)pyrrolo[1,2-f][1,2,4]triazin-2-yl)pyrrolidin-1-yl)(thiazol-2-yl)methanone]	162	24	11	6330	324	2520
O=C(c1nccs1)N1CCC[C@H]1c1nc(Nc2cc(C3CC3)[nH]n2)c2cccn2n1 [Example 2, (S)-(2-(4-(5-Cyclopropyl-1H-pyrazol-3-ylamino)pyrrolo[1,2-f][1,2,4]triazin-2-yl)pyrrolidin-1-yl)(thiazol-2-yl)methanone]	88	1	24	170	–	5
O=C(c1ccc(F)nc1)N1CCC[C@H]1c1nc(Nc2cc(C3CC3)[nH]n2)c2cccn2n1 [Example 1, (S)-(2-(4-(5-Cyclopropyl-1H-pyrazol-3-ylamino)pyrrolo[1,2-f][1,2,4]triazin-2-yl)pyrrolidin-1-yl)(6-fluoropyridin-3-yl)methanone]	1870	29	290	28	–	–
O=C(c1cnccn1)N1CCC[C@@H]1c1nc(Nc2cc(C3CC3)[nH]n2)c2cccn2n1 [Example 12, (R)-(2-(4-(5-Cyclopropyl-1H-pyrazol-3-ylamino)pyrrolo[1,2-f][1,2,4]triazin-2-yl)pyrrolidin-1-yl)(pyrazin-2-yl)methanone]	256	6	3	10800	4480	4930
